Entries after “also recorded” stand apart in the source; their conditions may differ. Where two headings read alike, the source gives them in different places.
Columns and labels:
[1] = rat, in vivo
Procedure: FIG. 4A provides body weight data of subjects administered vehicle, and subjects in Group 1 and Group 2 (Groups described in FIG. 1A). […] FIG. 4B gives white blood cell (WBC) counts at 24 hours of Group 1 and 2 subjects, subjects administered vehicle and normal subjects administered AMD3465.

[2] = test system: renal ischemia-reperfusion injury; assay: Renal function (creatinine, BUN) in rat model of renal ischemia-reperfusion injury; assay type: in vivo; settings: for creatinine levels: FIG. 1B; for effect on creatinine: FIG. 7B; for renal function loss / acute kidney injury: P≦0.05; for plasma creatinine: not significant (P>0.05), FIG. 5B
Procedure: This example illustrates the effect of multiple dosing strategies of AMD3465 in an in vivo rat model of renal ischemia-reperfusion injury in which the renal artery and vein of both kidneys were clamped for 45 minutes followed by removal of the clamps and reperfusion with blood. […] Group 1 follows this dosing regimen as illustrated in FIG. 1A. FIGS. 1B and 1C show creatinine and BUN levels in mg/dL of Group 1 subjects compared to subjects following different dosing strategies shown in FIG. 1A using 10 mg/kg. Also shown in FIG. 1A—Group 2 was dosed at −15 min and +2 hrs and +4 hrs and Group 3 at time 0 and +2 hrs.
FIG. 5A diagrams the dosing regimen timeline for groups 1 and 2. FIGS. 5B, 5C and 5D show the creatine (serum or plasma) and blood urea nitrogen levels of the AMD treated groups, vehicle treated and normal subjects. Dosing was carried out with two 1 mg/kg administrations (Group 1) or 5 mg/kg in a single dose (Group 2). […] FIG. 5C and FIG. 5D illustrate individual data points of each rat for plasma creatinine and blood urea nitrogen, respectively.
FIG. 6A illustrates the dosing regimen.
FIG. 7A illustrates the dosing regimen. Group 1 was administered 0.01 mg/kg both 15 minutes before and 3 hours after ischemia; Group 2 was administered 0.1 mg/kg at 15 minutes before.

[3] = test system: renal ischemia-reperfusion injury; assay: Kidney histology: injury score (hematoxylin/eosin) and TUNEL score after renal ischemia-reperfusion; assay type: in vivo, rat
Procedure: Rats were dosed as described for Group 1 rats in FIG. 1A. […] FIGS. 2C and 2D show graphs of the Injury and TUNEL score, respectively. Injury was evaluated by scoring hematoxylin and eosin stained kidney sections on a scale of 1 to 4 for proteinaceous cast formation, cell exfoliation, vascular congestion and loss of tubular architecture. TUNEL staining was carried out on kidney sections to identify apoptotic cells that were then quantified by Metamorph analysis.
(§1) Data for FIGS. 8A, 8B and 8C were generated as described for FIGS. 2C, 2D and 3C, respectively.

[4] = test system: IL-6/IL-10 mRNA expression; settings: Group 1 dosing
[5] = test system: renal ischemia-reperfusion injury; assay: Microvascular permeability: rat IgG immunostaining of kidney and serum vWF ELISA after renal ischemia-reperfusion; assay type: in vivo
From the text: Leakage of plasma proteins and secretion of von Willebrand Factor (vWF) are two indicators of the loss of microvascular integrity. FIGS. 3A and 3B are images of kidney tissue harvested 24 hrs after renal ischemia-reperfusion from subjects treated with the vehicle and AMD3465, respectively; tissue sections were immunostained with an antibody that recognizes rat immunoglobulin (IgG) and immunoreactivity quantified by Metamorph analysis illustrated in FIG. 3C. […] Renal ischemia-reperfusion rats that received AMD3465 represent Group 1 rats in FIG. 1A.
as §1

white blood cells = settings: normal rats; single dose 1 mg/kg at time 0 versus 0.1 mg/kg twice (time 0 and 3 hrs later); FIG. 9
myeloperoxidase activity = settings: both regimens of FIG. 6A; FIG. 8D
From the text: as §1

c1ccc(CNCc2ccc(CN3CCCNCCNCCCNCC3)cc2)nc1 [AMD3465, N-[1,4,8,11-tetraazacyclotetradecanyl-1,4-phenylene-bis-(methylene)]-2-aminomethyl-pyridine]
body weight [1]: lost less body weight
tolerability [1]: well tolerated
white blood cell (WBC) counts [1]: comparable
loss of renal function based on levels of serum creatine and serum blood urea nitrogen (BUN) ([2]; 10 mg/kg 15 min prior to ischemia and 2 hrs later (Group 1), 24 hrs after reperfusion): ameliorated the loss of renal function
creatinine levels ([2]; Group 1: 10 mg/kg at -15 min and +2 hrs, 24 hrs after reperfusion, P<0.05): closest to normal
BUN levels ([2]; Group 1: 10 mg/kg at -15 min and +2 hrs, 24 hrs after reperfusion, FIG. 1C, P<0.05): closest to normal
creatinine levels ([2]; Group 2: 10 mg/kg at -15 min, +2 hrs and +4 hrs, 24 hrs after reperfusion): closest to normal
BUN levels ([2]; Group 2: 10 mg/kg at -15 min, +2 hrs and +4 hrs, 24 hrs after reperfusion, FIG. 1C): closest to normal
structural integrity of the kidney ([3]; Group 1 dosing (10 mg/kg -15 min, +2 hrs), 24 hr post-reperfusion, vs vehicle, 10 mg/kg): maintained structural integrity; also recorded: remained intact
renal injury (Injury score) ([3]; Group 1 dosing (10 mg/kg -15 min, +2 hrs), 24 hr post-reperfusion, vs vehicle, FIG. 2C, 10 mg/kg): decreasing renal injury; also recorded: significantly reduced
cell death (TUNEL score) ([3]; Group 1 dosing (10 mg/kg -15 min, +2 hrs), 24 hr post-reperfusion, vs vehicle, FIG. 2D, 10 mg/kg): decreasing; also recorded: significantly reduced
ratio of IL-6/IL-10 mRNA expression ([4]; 5 hrs post-reperfusion, compared to vehicle): drops more drastically
ratio of IL-6/IL-10 mRNA expression ([4]; 24 hrs post-reperfusion): has dropped
frequency of serum proteins measured by rat IgG in the renal tubular lumen ([5]; Group 1 dosing, kidney harvested 24 hrs after renal ischemia-reperfusion, vs vehicle, FIG. 3C): less
circulating levels of the cleaved form of von Willebrand factor (serum, ELISA) ([5]; Group 1 dosing, vs vehicle, FIG. 3D): lower

c1cc(CN2CCCNCCNCCCNCC2)ccc1CN1CCCNCCNCCCNCC1 [AMD3100, 1,1′-[1,4-phenylene-bis(methylene)]-bis-1,4,8,11-tetraazacyclotetradecane]
mobilization of white blood cells (white blood cells): Comparable results
myeloperoxidase activity, a measure of neutrophilic infiltration into the kidney tissue (myeloperoxidase activity): lowered myeloperoxidase activity
effect on creatinine ([2]; 0.01 mg/kg both 15 minutes before and 3 hours after ischemia (Group 1, FIG. 7A)): less positive results
renal function loss / acute kidney injury ([2]; 0.1 mg/kg 15 minutes prior to ischemia and 3 hrs later (Group 1, FIG. 6A)): therapeutically effective
effect on creatinine ([2]; 0.1 mg/kg at 15 minutes before ischemia (Group 2, FIG. 7A)): comparable to that shown in FIG. 6B
renal function loss / acute kidney injury ([2]; 1 mg/kg only at 15 minutes prior to ischemia (Group 2, FIG. 6A)): therapeutically effective
rats that demonstrated lower plasma creatinine (individual data points) ([2]; FIG. 5C, dosing of FIG. 5A): five
plasma creatinine levels ([2]; regimens of FIG. 6A (0.1 mg/kg twice or 1 mg/kg once), FIG. 6B): reduction
BUN levels ([2]; regimens of FIG. 6A (0.1 mg/kg twice or 1 mg/kg once), FIG. 6C): reduction
plasma BUN ([2]; regimens of FIG. 7A (0.01 mg/kg twice or 0.1 mg/kg once), FIG. 7C compared with FIG. 6C): only slightly less effective
plasma creatinine ([2]; single dose of 5 mg/kg (Group 2, FIG. 5A)): decrease
plasma creatinine ([2]; two doses of 1 mg/kg (Group 1, FIG. 5A)): decrease
TUNEL score ([3]; regimen of FIG. 6A (0.1 mg/kg twice or 1.0 mg/kg once), FIG. 8B): significant effect
injury score ([3]; regimen of FIG. 6A (0.1 mg/kg twice or 1.0 mg/kg once), compared to vehicle, FIG. 8A): lowered significantly
luminal IgG score ([5]; regimen of FIG. 6A (0.1 mg/kg twice or 1.0 mg/kg once), FIG. 8C): significant effect

Source: US20110245265A1, “CXCR4 ANTAGONISTS FOR KIDNEY INJURY” (GENZYME CORPORATION, priority 2008, published 2011)
